The species named for one assay is Oryctolagus cuniculus. As to the kind of experiment: Inhibition of Endothelin-1 induced contractions in rabbit carotid artery rings. The assay is classed as functional.
The target of assay [1] is T1, Endothelin receptor type B (Homo sapiens, UniProt P24530).
T1 sequence (P24530 whole entry): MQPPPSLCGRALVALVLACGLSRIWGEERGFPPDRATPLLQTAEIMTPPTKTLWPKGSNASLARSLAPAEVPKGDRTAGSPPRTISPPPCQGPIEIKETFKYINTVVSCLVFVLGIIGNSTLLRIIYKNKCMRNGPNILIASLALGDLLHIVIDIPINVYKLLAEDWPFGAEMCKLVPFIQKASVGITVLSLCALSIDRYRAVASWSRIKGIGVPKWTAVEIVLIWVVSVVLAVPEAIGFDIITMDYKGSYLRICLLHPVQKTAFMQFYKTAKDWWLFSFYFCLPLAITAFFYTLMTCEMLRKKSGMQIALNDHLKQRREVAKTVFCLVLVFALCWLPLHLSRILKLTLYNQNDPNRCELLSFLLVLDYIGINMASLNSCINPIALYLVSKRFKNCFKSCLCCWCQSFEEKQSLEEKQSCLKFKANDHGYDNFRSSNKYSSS
Briefly: Inhibition of Human Endothelin B receptor expressed in CHO Cells.

The next assay addresses T2, Endothelin-1 receptor (Homo sapiens, UniProt P25101).
T2 sequence (P25101 whole entry): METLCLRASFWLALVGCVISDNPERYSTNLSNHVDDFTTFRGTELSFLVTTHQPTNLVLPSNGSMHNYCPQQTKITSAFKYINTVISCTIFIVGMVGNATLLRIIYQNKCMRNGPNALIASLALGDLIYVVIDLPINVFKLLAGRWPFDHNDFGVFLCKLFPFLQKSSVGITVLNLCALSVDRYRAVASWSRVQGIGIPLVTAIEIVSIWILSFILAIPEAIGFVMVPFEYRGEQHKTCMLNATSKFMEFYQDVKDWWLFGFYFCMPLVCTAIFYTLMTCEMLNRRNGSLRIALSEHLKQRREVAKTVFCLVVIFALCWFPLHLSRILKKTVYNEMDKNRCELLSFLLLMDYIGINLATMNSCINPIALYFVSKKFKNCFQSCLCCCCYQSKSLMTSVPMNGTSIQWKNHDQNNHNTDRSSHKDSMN

Description for Endothelin-1 receptor: Inhibition of Human Endothelin A receptor expressed in CHO Cells.

The term Ki denotes a measure of affinity in units of concentration, obtained from inhibition or displacement. A high value points to weaker binding. The compound `Cc1noc(NS(=O)(=O)c2ccccc2-c2ccc(-c3cnco3)cc2)c1C` showed a Kb in the assay listed under Oryctolagus cuniculus of 0.058 µM. Moreover, the Ki in assay [1] came to 78 µM; at Endothelin-1 receptor, 0.0037 µM.
In the same order, the values of `Cc1noc(NS(=O)(=O)c2ccccc2-c2ccc(-c3ncoc3C)cc2)c1C` are 0.047 µM, 94 µM and 0.0047 µM.
Regarding `Cc1noc(NS(=O)(=O)c2ccccc2-c2ccc(CC(C)C)cc2)c1C`, the Kb in the assay listed under Oryctolagus cuniculus was 0.21 µM. Moreover, the values for the Ki (in assay [1]; on Endothelin-1 receptor) were 1.7 µM and 0.018 µM, respectively.
As to `Cc1nc(-c2ccc(-c3ccccc3S(=O)(=O)Nc3onc(C)c3C)cc2)oc1C`, in the assay listed under Oryctolagus cuniculus, the Kb was determined as 0.23 µM. Besides, the Ki worked out at 12 µM in assay [1] and 0.016 µM at Endothelin-1 receptor.
Turning to `Cc1noc(NS(=O)(=O)c2ccccc2-c2ccc(-c3cocn3)cc2)c1C`, the Kb in the assay filed under Oryctolagus cuniculus stood at 0.02 µM. Moreover, the values for the Ki (in assay [1]; at Endothelin-1 receptor) were 20 µM and 0.0005 µM, respectively.
Compound `Cc1cnc(-c2ccc(-c3ccccc3S(=O)(=O)Nc3onc(C)c3C)cc2)o1` gave a Kb in the assay filed under Oryctolagus cuniculus of 0.14 µM. Also, the Ki turned out to be 12 µM in assay [1] and 0.011 µM on Endothelin-1 receptor.
With `Cc1coc(-c2ccc(-c3ccccc3S(=O)(=O)Nc3onc(C)c3C)cc2)n1`, in the assay filed under Oryctolagus cuniculus, the Kb came to 0.018 µM. Further, the Ki is 100 µM in assay [1] and 0.002 µM at Endothelin-1 receptor.
Take `Cc1nc(-c2ccc(-c3ccccc3S(=O)(=O)Nc3onc(C)c3C)cc2)co1`: the Kb in the assay listed under Oryctolagus cuniculus was 2.5 µM. Besides, the Ki was determined as 110 µM in assay [1] and 0.07 µM at Endothelin-1 receptor.
`Cc1noc(NS(=O)(=O)c2ccccc2-c2ccc(CC(C)C)cc2N)c1C`: the Ki on Endothelin-1 receptor was determined as 0.0047 µM.
Take `Cc1noc(NS(=O)(=O)c2ccccc2-c2ccc(-c3nc4ccccc4o3)cc2)c1C`: the Ki is 94 µM in assay [1] and 2 µM on Endothelin-1 receptor.
Regarding `Cc1noc(NS(=O)(=O)c2ccccc2-c2ccc(Cc3ncco3)cc2)c1C`, the Kb in the assay filed under Oryctolagus cuniculus was 0.32 µM. Further, the Ki in assay [1] came out at 34 µM; at Endothelin-1 receptor, 0.019 µM.

These data come from ChEMBL document CHEMBL1133615 (J Med Chem, 2000).
